From patent publication US9115137B2, “2,3,4,5-tetrahydro-1H-pyrido[4,3-B]indole compounds and methods of use thereof” (priority 2008, dated 2015)

Columns and labels:
[1] = molecular target: T1, human recombinant histamine H1 receptor (Homo sapiens, UniProt P35367); test: Histamine H1 radioligand binding ([3H]Pyrilamine); settings: compound at 1 μM; CHO cells; read-out: Histamine Binding (1 μM) H1, percent inhibition of specific binding
T1 construct: expressed in transfected cells; host or cells: CHO cells
T1 sequence (P35367 whole entry): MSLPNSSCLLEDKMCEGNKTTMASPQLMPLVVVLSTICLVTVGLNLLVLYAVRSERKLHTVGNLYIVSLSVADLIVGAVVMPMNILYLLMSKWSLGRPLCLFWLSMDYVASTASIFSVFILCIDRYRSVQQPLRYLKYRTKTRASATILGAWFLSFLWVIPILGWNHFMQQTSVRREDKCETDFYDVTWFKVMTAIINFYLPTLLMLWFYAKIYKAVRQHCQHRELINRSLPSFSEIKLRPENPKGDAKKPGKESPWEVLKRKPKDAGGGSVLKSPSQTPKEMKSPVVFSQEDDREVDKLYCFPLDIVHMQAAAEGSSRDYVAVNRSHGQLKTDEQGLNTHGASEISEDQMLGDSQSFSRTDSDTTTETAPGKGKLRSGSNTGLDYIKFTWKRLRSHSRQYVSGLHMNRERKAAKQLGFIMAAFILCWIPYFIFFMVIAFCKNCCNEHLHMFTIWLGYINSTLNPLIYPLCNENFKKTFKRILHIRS
Method: To evaluate in radioligand binding assays the activity of compounds of the invention, human recombinant histamine H1 receptor expressed in Chinese hamster ovary (CHO) cells (De Backer, M. D. et al., Biochem. Biophys. Res. Comm. 197(3):1601, 1993) in a modified Tris-HCl buffer (50 mM Tris-HCl, pH 7.4, 2 mM MgCl2, 100 mM NaCl, 250 mM Sucrose) was used. Compounds of the invention were incubated with 1.2 nM [^3H]Pyrilamine for 180 minutes at 25° C. Non-specific binding was estimated in the presence of 1 μM pyrilamine. Receptor proteins were filtered and washed, the filters were then counted to determine [^3H]Pyrilamine specifically bound. Compounds were screened at 1 μM, using 1% DMSO as vehicle. Biochemical assay results are presented as the percent inhibition of specific binding in Table 5.

[2] = molecular target: T2, human recombinant adrenergic α2B receptor (Homo sapiens, UniProt P18089); test: Adrenergic α2B radioligand binding ([3H]Rauwolscine); settings: compound at 1 μM; CHO-K1 cells; read-out: Adrenergic (1 μM) α2B, percent inhibition of specific binding
T2 construct: expressed in transfected cells; host or cells: CHO-K1 cells
T2 sequence (P18089 1-450): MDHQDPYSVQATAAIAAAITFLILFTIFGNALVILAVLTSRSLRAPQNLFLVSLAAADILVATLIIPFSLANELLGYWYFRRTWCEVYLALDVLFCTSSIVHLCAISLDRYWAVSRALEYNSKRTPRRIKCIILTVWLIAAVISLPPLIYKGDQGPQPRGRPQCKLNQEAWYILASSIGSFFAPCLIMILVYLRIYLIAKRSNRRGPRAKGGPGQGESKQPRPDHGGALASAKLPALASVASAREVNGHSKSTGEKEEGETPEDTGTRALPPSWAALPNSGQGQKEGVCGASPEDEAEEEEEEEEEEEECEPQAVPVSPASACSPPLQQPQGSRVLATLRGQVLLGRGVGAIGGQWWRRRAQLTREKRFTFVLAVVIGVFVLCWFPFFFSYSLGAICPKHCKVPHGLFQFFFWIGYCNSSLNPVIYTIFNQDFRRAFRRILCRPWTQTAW
Method: To evaluate in radioligand binding assays the activity of compounds of the invention, human recombinant adrenergic α2B receptor expressed in Chinese hamster ovary (CHO-K1) cells (Uhlen S et al. Eur. J. Pharmacol. 343(1):93, 1998) in a modified Tris-HCl buffer (50 mM Tris-HCl, pH 7.4, 12.5 mM MgCl2, 1 mM EDTA, 0.2% BSA) was used. Compounds of the invention were incubated with 2.5 nM [3H]Rauwolscine for 60 minutes at 25° C. Non-specific binding was estimated in the presence of 10 μM Prozosin. Receptor proteins were filtered and washed, the filters were then counted to determine [^3H]Rauwolscine specifically bound. Compounds were screened at 1 μM or lower, using 1% DMSO as vehicle. Biochemical assay results are presented as the percent inhibition of specific binding in Table 6.

[3] = molecular target: T3, human recombinant serotonin (5-Hydroxytryptamine) 5-HT2C receptor (Homo sapiens, UniProt P28335); test: Serotonin 5-HT2C radioligand binding ([3H]Mesulergine); settings: compound at 1 μM; CHO-K1 cells; read-out: Serotonin (1 μM) 5-HT2C, percent inhibition of specific binding
T3 construct: expressed in transfected cells; host or cells: CHO-K1 cells
T3 sequence (P28335 33-458): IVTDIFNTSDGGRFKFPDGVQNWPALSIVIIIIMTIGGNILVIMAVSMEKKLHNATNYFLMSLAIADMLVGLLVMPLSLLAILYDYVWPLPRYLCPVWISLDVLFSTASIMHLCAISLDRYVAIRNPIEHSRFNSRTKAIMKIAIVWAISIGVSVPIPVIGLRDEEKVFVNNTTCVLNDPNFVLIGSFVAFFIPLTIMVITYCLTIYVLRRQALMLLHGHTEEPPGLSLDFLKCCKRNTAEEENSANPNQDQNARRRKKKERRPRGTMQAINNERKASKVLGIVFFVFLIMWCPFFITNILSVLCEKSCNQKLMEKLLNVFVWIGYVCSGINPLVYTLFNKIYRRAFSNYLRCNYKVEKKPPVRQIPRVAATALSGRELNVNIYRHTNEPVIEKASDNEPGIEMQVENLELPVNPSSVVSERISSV
Method: To evaluate in radioligand binding assays the activity of compounds of the invention, human recombinant serotonin (5-Hydroxytryptamine) 5-HT2C receptor expressed in Chinese hamster ovary (CHO-K1) cells (Wolf, W. A. and Schutz, J. S., J. Neurochem. 69:1449, 1997) in a modified Tris-HCl buffer (50 mM Tris-HCl, pH 7.4, 0.1% Ascorbic Acid, 10 μM Pargyline) was used. Compounds of the invention were incubated with 1 nM [^3H]Mesulergine for 60 minutes at 25° C. Non-specific binding was estimated in the presence of 1 μM Mianserin. Receptor proteins were filtered and washed, the filters were then counted to determine [^3H]Mesulergine specifically bound. Compounds were screened at 1 μM or lower, using 1% DMSO as vehicle. Biochemical assay results are presented as the percent inhibition of specific binding in Table 7.

[4] = molecular target: T4, human recombinant dopamine D2L receptor (Homo sapiens, UniProt P14416); test: Dopamine D2L radioligand binding ([3H]Spiperone); settings: compound at 1 μM; CHO cells; read-out: Dopamine (1 μM) D2L, percent inhibition of specific binding
T4 construct: expressed in transfected cells; host or cells: CHO cells
T4 sequence (P14416 whole entry): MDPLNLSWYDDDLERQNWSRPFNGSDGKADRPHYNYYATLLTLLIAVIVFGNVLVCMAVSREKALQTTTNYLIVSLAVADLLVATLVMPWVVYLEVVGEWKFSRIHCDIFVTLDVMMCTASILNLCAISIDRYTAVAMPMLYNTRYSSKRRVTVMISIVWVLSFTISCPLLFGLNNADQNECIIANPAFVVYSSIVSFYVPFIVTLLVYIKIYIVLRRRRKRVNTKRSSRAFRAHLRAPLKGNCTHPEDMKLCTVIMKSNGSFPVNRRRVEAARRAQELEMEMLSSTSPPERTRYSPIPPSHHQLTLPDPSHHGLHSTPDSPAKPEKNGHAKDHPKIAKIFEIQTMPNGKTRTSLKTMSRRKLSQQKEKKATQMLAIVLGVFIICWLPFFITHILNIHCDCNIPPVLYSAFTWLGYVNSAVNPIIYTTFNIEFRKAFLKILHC
Method: To evaluate in radioligand binding assays the activity of compounds of the invention, human recombinant dopamine D2L receptor expressed in Chinese hamster ovary (CHO) cells (Grandy, D. K. et al. Proc. Natl. Acad. Sci. USA. 86:9762, 1989; Hayes, G. et al., Mol. Endocrinol. 6:920, 1992) in a modified Tris-HCl buffer (50 mM Tris-HCl, pH 7.4, 1.4 mM Ascorbic Acid, 0.001% BSA, 150 mM NaCl) was used. Compounds of the invention were incubated with 0.16 nM [^3H]Spiperone for 120 minutes at 25° C. Non-specific binding was estimated in the presence of 10 μM Haloperidol. Receptor proteins were filtered and washed, the filters were then counted to determine [^3H]Spiperone specifically bound. Compounds were screened at 1 μM or lower, using 1% DMSO as vehicle. Biochemical assay results are presented as the percent inhibition of specific binding in Table 6.

SMILES	inhibition at 1 µM [1]	inhibition at 1 µM [2]	inhibition at 1 µM [3]	inhibition at 1 µM [4]
CCOC(=O)CCn1c2c(c3cc(C)ccc31)CN(C)CC2 [CD1, ethyl 3-(1,2,3,4-tetrahydro-2,8-dimethylpyrido[4,3-b]indol-5-yl)propanoate]	101%	95%	93%	–
CCOC(=O)CCn1c2c(c3cc(Cl)ccc31)CN(C)CC2 [CD17, ethyl 3-(8-chloro-1,2,3,4-tetrahydro-2-methylpyrido[4,3-b]indol-5-yl)propanoate]	100%	99%	96%	22%
CN1CCc2c(c3cc(Cl)ccc3n2CC(=O)O)C1 [CD46, 2-(8-chloro-1,2,3,4-tetrahydro-2-methylpyrido[4,3-b]indol-5-yl)acetic acid]	69%	35%	30%	3%
Cc1ccc2c(c1)c1c(n2CCC(=O)O)CCN(C)C1 [CD47, 3-(1,2,3,4-tetrahydro-2,8-dimethylpyrido[4,3-b]indol-5-yl)propanoic acid]	25%	24%	25%	4%
CN1CCc2c(c3cc(Cl)ccc3n2CCC(=O)O)C1 [CD55, 3-(8-chloro-1,2,3,4-tetrahydro-2-methylpyrido[4,3-b]indol-5-yl)propanoic acid]	22%	10%	11%	3%
CCOC(=O)Cn1c2c(c3cc(C)ccc31)CN(C)CC2 [CD57, ethyl 2-(1,2,3,4-tetrahydro-2,8-dimethylpyrido[4,3-b]indol-5-yl)acetate]	100%	65%	96%	12%
Cc1ccc2c(c1)c1c(n2CC(=O)O)CCN(C)C1 [CD58, 2-(1,2,3,4-tetrahydro-2,8-dimethylpyrido[4,3-b]indol-5-yl)acetic acid]	5%	-6%	-19%	2%
Cc1ccc2c(c1)c1c(n2CC#N)CCN(C)C1 [CD61, 2-(1,2,3,4-tetrahydro-2,8-dimethylpyrido[4,3-b]indol-5-yl)acetonitrile]	98%	89%	73%	–
Cc1ccc2c(c1)c1c(n2CCN)CCN(C)C1 [CD62, 2-(1,2,3,4-tetrahydro-2,8-dimethylpyrido[4,3-b]indol-5-yl)ethanamine]	44%	32%	28%	26%
C#CCn1c2c(c3cc(C)ccc31)CN(C)CC2 [CD73, 2,8-dimethyl-5-(prop-2-ynyl)-2,3,4,5-tetrahydro-1H-pyrido[4,3-b]indole]	96%	101%	92%	–
CN1CCc2c(c3cc(Cl)ccc3n2CCCO)C1 [CD87, 3-(8-chloro-2-methyl-3,4-dihydro-1H-pyrido[4,3-b]indol-5(2H)-yl)propan-1-ol]	97%	103%	79%	10%
CNC(=O)CCn1c2c(c3cc(C)ccc31)CN(C)CC2 [Compound 1, 3-(1,2,3,4-tetrahydro-2,8-dimethylpyrido[4,3-b]indol-5-yl)-N-methylpropanamide]	34%	51%	20%	–
CCNC(=O)CCn1c2c(c3cc(C)ccc31)CN(C)CC2 [Compound 2, N-ethyl-3-(1,2,3,4-tetrahydro-2,8-dimethylpyrido[4,3-b]indol-5-yl)propanamide]	52%	55%	-5%	–
Cc1ccc2c(c1)c1c(n2CCC(=O)NC2CCCCC2)CCN(C)C1 [Compound 3, N-cyclohexyl-3-(1,2,3,4-tetrahydro-2,8-dimethylpyrido[4,3-b]indol-5-yl)propanamide]	2%	80%	29%	–
Cc1ccc2c(c1)c1c(n2CCC(=O)NC2CCCC2)CCN(C)C1 [Compound 4, N-cyclopentyl-3-(1,2,3,4-tetrahydro-2,8-dimethylpyrido[4,3-b]indol-5-yl)propanamide]	60%	93%	36%	–
CCOC(=O)CCCn1c2c(c3cc(C)ccc31)CN(C)CC2 [Compound 5, ethyl 4-(1,2,3,4-tetrahydro-2,8-dimethylpyrido[4,3-b]indol-5-yl)butanoate]	96%	98%	96%	–
CCNC(=O)CCCn1c2c(c3cc(C)ccc31)CN(C)CC2 [Compound 6, N-ethyl-4-(1,2,3,4-tetrahydro-2,8-dimethylpyrido[4,3-b]indol-5-yl)butanamide]	46%	36%	45%	–
Cc1ccc2c(c1)c1c(n2CCNC(=O)OCC(Cl)(Cl)Cl)CCN(C)C1 [Compound 8, 2,2,2-trichloroethyl 2-(1,2,3,4-tetrahydro-2,8-dimethylpyrido[4,3-b]indol-5-yl)ethylcarbamate]	101%	102%	99%	–
Cc1ccc2c(c1)c1c(n2CCNC(=O)C2CCCNC2)CCN(C)C1 (centres unmarked) [Compound 9, N-(2-(1,2,3,4-tetrahydro-2,8-dimethylpyrido[4,3-b]indol-5-yl)ethyl)piperidine-3-carboxamide]	–	25%	29%	2%
